Test results as given in patent publication US10131663B2, “Chemical compounds” (AstraZeneca AB, priority 2016, dated 2018).
Converted amounts (≈) assume the structure as drawn.

Key:
[1] = log D (shake flask, 1-octanol/aqueous buffer); assay type: physicochemical
From the text: The lipophilicity of a drug is an important physical property which may influence many biological and metabolic properties of a compound, for example the absorption, distribution, metabolism, excretion and toxicity profiles of a compound. The distribution coefficient between 1-octanol and aqueous buffer, Log DO/W, at pH 7.4, is the most commonly used measurement of the lipophilicity of a compound. The current method for measurement of Log DO/W is based on the traditional shake flask technique, but with the modification of measuring compounds in mixtures of ten at a time using UPLC with quantitative mass spectrometry (MS) as a method to measure the relative octanol and aqueous concentrations. […] An additional QC sample Caffeine, with low Log D, are used and randomly placed in all runs. The method has been thoroughly validated against the previous shake flask methodologies.

[2] = Thermodynamic solubility (shake-flask); assay type: physicochemical; conditions: aqueous phosphate buffer, 25 °C, pH 7.4, aqueous buffer, thermodynamic from solid, aqueous phosphate buffer pH 7.4, 24 hours
Experimental: The thermodynamic solubility of a research compound is measured under standard conditions. It is a shake-flask approach that uses 10 mM DMSO solutions which are supplied from the Compound Managements liquid store and is a high throughput method. The dried compounds are equilibrated in an aqueous phosphate buffer (pH 7.4) for 24 hours at 25° C., the portion with the dissolved compound is then separated from the remains. The solutions are analyzed and quantified using UPLC/MS/MS, QC-samples are incorporated in each assay-run to ensure the quality of the assay.

[3] = target: Estrogen Receptor (ERα) in MCF-7 cells (Homo sapiens (Human), UniProt P03372); assay: MCF-7 ER down-regulation assay (immuno-fluorescence); assay type: cell-based
Estrogen Receptor (ERα) in MCF-7 cells, sequence (P03372 whole entry): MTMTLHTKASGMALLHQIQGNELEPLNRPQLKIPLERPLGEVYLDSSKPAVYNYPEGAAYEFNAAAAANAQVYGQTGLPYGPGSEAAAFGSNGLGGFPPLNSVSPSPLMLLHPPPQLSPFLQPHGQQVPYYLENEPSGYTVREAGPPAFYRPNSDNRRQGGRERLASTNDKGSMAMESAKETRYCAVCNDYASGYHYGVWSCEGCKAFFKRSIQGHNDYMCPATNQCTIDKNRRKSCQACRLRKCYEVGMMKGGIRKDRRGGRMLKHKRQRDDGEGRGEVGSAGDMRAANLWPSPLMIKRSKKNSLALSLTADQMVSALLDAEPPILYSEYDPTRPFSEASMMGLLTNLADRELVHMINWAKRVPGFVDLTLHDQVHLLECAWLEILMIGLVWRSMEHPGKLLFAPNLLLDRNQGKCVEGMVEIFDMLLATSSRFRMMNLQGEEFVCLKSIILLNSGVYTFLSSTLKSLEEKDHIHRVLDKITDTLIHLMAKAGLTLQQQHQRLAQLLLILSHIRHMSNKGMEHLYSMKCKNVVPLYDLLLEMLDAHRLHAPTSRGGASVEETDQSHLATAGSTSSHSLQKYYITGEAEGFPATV
Experimental: The Echo uses acoustic technology to perform direct microplate-to-microplate transfers of DMSO compound solutions to assay plates. […] Cells were fixed at room temperature for 20 mins before being washed two times with 250 μL PBS/Proclin (PBS with a Biocide preservative) using a BioTek platewasher, 40 μL of PBS/Proclin was then added to all wells and the plates stored at 4° C. The fixing method described above was carried out on the Integrated Echo 2 workcell. Immunostaining was performed using an automated AutoElisa workcell. […] The plates were incubated overnight at 4° C. […] The mean total intensity was normalized for cell number giving the total intensity per cell. The data was exported into a suitable software package (such as Origin) to perform curve fitting analysis.

[4] = target: recombinant human Estrogen Receptor alpha ligand binding domain (ER alpha-LBD (GST)) (Homo sapiens (Human), UniProt P03372); assay: ERα binding assay (LanthaScreen TR-FRET competition); conditions: TR-FRET, displacement of Fluormone ES2
recombinant human Estrogen Receptor alpha ligand binding domain (ER alpha-LBD (GST)), sequence (P03372 307-554): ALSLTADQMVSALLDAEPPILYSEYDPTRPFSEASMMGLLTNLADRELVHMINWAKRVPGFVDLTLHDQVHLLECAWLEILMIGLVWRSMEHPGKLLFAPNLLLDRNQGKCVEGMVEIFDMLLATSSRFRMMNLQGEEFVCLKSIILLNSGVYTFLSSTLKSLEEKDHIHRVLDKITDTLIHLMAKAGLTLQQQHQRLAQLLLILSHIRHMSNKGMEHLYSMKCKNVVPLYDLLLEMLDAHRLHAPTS
Experimental: The ability of compounds to bind to isolated Estrogen Receptor Alpha Ligand binding domain (ER alpha-LBD (GST)) was assessed in competition assays using a LanthaScreen™ Time-Resolved Fluorescence Resonance Energy Transfer (TR-FRET) detection end-point. […] The assay principle is that ER alpha-LBD (GST) is added to a fluorescent ligand to form a receptor/fluorophore complex. A terbium-labelled anti-GST antibody (Product code PV3551) is used to indirectly label the receptor by binding to its GST tag, and competitive binding is detected by a test compound's ability to displace the fluorescent ligand, resulting in a loss of TR-FRET signal between the Tb-anti-GST antibody and the tracer. The assay was performed as follows with all reagent additions carried out using the Beckman Coulter BioRAPTR FRD microfluidic workstation: • 1. Acoustic dispense 120 nL of the test compound into a black low volume 384 well assay plates. • 2. Prepare 1×ER alpha-LBD/Tb-antiGST Ab in ES2 screening buffer and incubate for 15 minutes. • 3. Dispense 6 μL of the 1×[…]/Tb-anti-GST Ab reagent into each well of the assay plate followed by 6 μL of Fluorophore reagent into each well of the assay plate • 4. Cover the assay plate to protect the reagents from light and evaporation, and incubate at room temperature for 4 hours. • 5.
TR-FRET dose response data obtained with each compound was exported into a suitable software package (such as Origin or Genedata) to perform curve fitting analysis. Competitive ER alpha binding was expressed as an IC50 value.

[5] = Human plasma protein binding (equilibrium dialysis); assay type: in vitro ADME; conditions: dialysis 18 hours
Experimental: The automated equilibrium dialysis assay in human plasma uses the RED (Rapid Equilibrium Dialysis) Device and sample handling. The assay generally runs over two to three days including delivery of results. After dialysis for 18 hours, plasma and buffer samples are prepared for analysis by liquid chromatography and mass spectrometry. Samples are generally tested in singlicates and quantified by LC/MSMS by using a 7-point calibration curve in plasma. The compounds are pooled together in plasma pools up to 10 compounds. Three reference compounds are used in each run, Propranolol, Metoprolol and Warfarin. Warfarin is used as a control in each pool and Propranolol and Metoprolol are placed randomly in each run. An in-house Excel macro is used for preparation of files for the robot and the mass spectrometer and is also used for the calculations of fraction unbound (fu %) in plasma.

hERG potassium channel = hERG potassium channel (Homo sapiens (Human), UniProt Q12809); assay: hERG binding assay (automated patch clamp, CHO cells); assay type: cell-based; conditions: CHO cell line, Nanion Syncropatch 384PE
hERG potassium channel, sequence (Q12809 whole entry): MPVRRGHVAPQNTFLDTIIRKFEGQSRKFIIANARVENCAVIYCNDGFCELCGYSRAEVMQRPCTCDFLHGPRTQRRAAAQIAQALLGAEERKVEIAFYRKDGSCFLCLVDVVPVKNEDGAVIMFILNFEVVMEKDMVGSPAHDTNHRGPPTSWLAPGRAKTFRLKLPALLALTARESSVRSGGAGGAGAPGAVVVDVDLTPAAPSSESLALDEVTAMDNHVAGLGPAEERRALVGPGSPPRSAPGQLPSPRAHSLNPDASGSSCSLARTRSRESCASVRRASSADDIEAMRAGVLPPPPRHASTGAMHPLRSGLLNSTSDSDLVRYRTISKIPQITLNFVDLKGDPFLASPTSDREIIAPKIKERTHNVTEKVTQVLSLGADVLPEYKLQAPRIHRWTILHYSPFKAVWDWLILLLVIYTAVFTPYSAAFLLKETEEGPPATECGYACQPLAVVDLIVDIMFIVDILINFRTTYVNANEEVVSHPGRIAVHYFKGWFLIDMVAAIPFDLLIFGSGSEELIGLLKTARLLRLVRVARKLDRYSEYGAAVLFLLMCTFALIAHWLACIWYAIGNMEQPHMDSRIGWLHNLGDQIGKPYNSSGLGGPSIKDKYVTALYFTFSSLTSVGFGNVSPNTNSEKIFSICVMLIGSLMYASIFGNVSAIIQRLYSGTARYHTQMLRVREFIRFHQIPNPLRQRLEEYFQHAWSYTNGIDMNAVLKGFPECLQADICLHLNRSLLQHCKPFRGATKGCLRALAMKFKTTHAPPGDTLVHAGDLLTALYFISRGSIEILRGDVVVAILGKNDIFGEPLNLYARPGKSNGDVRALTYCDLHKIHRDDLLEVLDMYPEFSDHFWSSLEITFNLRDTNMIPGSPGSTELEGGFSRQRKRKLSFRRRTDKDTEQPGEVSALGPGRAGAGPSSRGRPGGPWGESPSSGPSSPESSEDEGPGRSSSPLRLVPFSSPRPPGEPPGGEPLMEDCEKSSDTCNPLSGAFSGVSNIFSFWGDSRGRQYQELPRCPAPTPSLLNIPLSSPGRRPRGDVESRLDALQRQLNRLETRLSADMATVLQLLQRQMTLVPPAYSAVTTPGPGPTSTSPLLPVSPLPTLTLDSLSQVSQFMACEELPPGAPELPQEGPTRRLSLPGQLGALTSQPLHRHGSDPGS
Experimental: Reagent preparations include: • 1.
Cell preparations: • 1. If using cell culture; cells to be incubated at 30° C. for approximately 4-6 days prior to being used. Day of assay lift cells using accutase and re-suspend in 20 ml cell buffer to a density of 0.8 to 1e6 cells/ml. • 2. If using assay ready cryovials; rapidly thaw two cryovials at 37° C. and slowly pipette into 23 ml external solution • 3.
All compounds were acoustically dispensed in quadruplicate using a Labcyte Echo. […] Fill 384 well medium resistance 4 hole chips with 40 μl external buffer and perfuse internal buffer to the underside of plate. • 2. Dispense 20 μl of cells into each well of the chip followed by 20 μl of seal enhancer. • 3. Remove 40 μl of reagent from each well to the wash station, leaving a residual volume of 40 μl • 4. Dispense 40 μl of reference buffer with a removal step of 40 μl after 3 min, repeat this step. • 5.
hERG-mediated currents were elicited using a voltage step protocol consisting of acontinuous holding voltage of −80 mV, with a 500 ms step to 60 mV followed by a 500 ms step to −40 mV every 15 seconds. hERG current magnitude was measured automatically from the leak-subtracted traces by the Nanion software by taking the peak of the hERG “tail” current at −40 mV every 15 seconds and taking the last three of these responses for each concentration to generate the concentration-effect curve.
Calculation of results is performed using APC package within Genedata. For the routine normalization of well data with Neutral and Inhibitor control well groups as reference, GeneData Assay Analyzer uses the following equation to normalize the signal values to the desired signal range:
[formula] • x is the measured raw signal value of a well • is the median of the measured signal values for the Central Reference (Neutral) wells on a plate • is the median of the measured signal values for the Scale Reference (Inhibitor) wells on a plate • CR is the desired median normalized value for the Central Reference (Neutral) • SR is the desired median normalized value for the Scale Reference (Inhibitor)

[6] = 1-octanol/aqueous buffer, pH 7.4, pH 7.4, 1-octanol/aqueous buffer
[7] = pH 7.4, 1-octanol/aqueous buffer

SMILES | logD [1, 6] | solubility at 24 h [2] [µM] | IC50 [3] [nM] | IC50 [4] [nM] | Human plasma protein binding (% free) [5] [% free] | IC50 (hERG potassium channel) [nM] | logD [1, 7]
COc1cc(NC2CN(CCCF)C2)ccc1[C@@H]1c2ccc3[nH]ncc3c2C[C@@H](C)N1CC1(CF)COC1 [Example 10, N-(4-((6S,8R)-7-((3-(fluoromethyl)oxetan-3-yl)methyl)-8-methyl-6,7,8,9-tetrahydro-3H-pyrazolo[4,3-f]isoquinolin-6-yl)-3-methoxyphenyl)-1-(3-fluoropropyl)azetidin-3-amine] | 2.8 | 634 (≈ 333 µg/mL) | 0.26 | 8 | 23 |  | 
CCOc1cc(NC2CN(CCCF)C2)ccc1[C@@H]1c2ccc3[nH]ncc3c2C[C@@H](C)N1CC1(F)CC1 [Example 20, N-(3-ethoxy-4-((6S,8R)-7-((1-fluorocyclopropyl)methyl)-8-methyl-6,7,8,9-tetrahydro-3H-pyrazolo[4,3-f]isoquinolin-6-yl)phenyl)-1-(3-fluoropropyl)azetidin-3-amine] | 2.8 | 730 (≈ 372 µg/mL) | 0.36 | 15 | 29 |  | 
COc1cc(OC2CN(CCCF)C2)ccc1[C@@H]1c2ccc3[nH]ncc3c2C[C@@H](C)N1CC(F)F [Example 22, (6S,8R)-7-(2,2-difluoroethyl)-6-(4-((1-(3-fluoropropyl)azetidin-3-yl)oxy)-2-methoxyphenyl)-8-methyl-6,7,8,9-tetrahydro-3H-pyrazolo[4,3-f]isoquinoline] | 4 | 70 (≈ 34.2 µg/mL) | 0.062 | 5.7 | 4.6 |  | 
C[C@@H]1Cc2c(ccc3[nH]nc(F)c23)[C@@H](c2cnc(NC3CN(CCCF)C3)cn2)N1CC(F)(F)F [Example 38, 5-((6S,8R)-1-fluoro-8-methyl-7-(2,2,2-trifluoroethyl)-6,7,8,9-tetrahydro-3H-pyrazolo[4,3-f]isoquinolin-6-yl)-N-(1-(3-fluoropropyl)azetidin-3-yl)pyrazin-2-amine] | 3.1 | 794 (≈ 393 µg/mL) | 0.19 | 0.69 | 13 | 18000 | 
C[C@@H]1Cc2c(ccc3[nH]nc(F)c23)[C@@H](c2ccc(NC3CN(CCCF)C3)c(F)n2)N1CC(F)(F)F [Example 39, 2-fluoro-6-((6S,8R)-1-fluoro-8-methyl-7-(2,2,2-trifluoroethyl)-6,7,8,9-tetrahydro-3H-pyrazolo[4,3-f]isoquinolin-6-yl)-N-(1-(3-fluoropropyl)azetidin-3-yl)pyridin-3-amine] |  | 257 (≈ 132 µg/mL) | 0.048 | 0.94 | 6.8 | 14000 | 3.7
C[C@@H]1Cc2c(ccc3[nH]ncc23)[C@@](C)(c2ccc(NC3CN(CCCF)C3)cn2)N1CC(F)F [Example 44, 6-((6S,8R)-7-(2,2-difluoroethyl)-6,8-dimethyl-6,7,8,9-tetrahydro-3H-pyrazolo[4,3-f]isoquinolin-6-yl)-N-(1-(3-fluoropropyl)azetidin-3-yl)pyridin-3-amine] |  | 998 (≈ 472 µg/mL) | 0.91 | 9.6 | 10 |  | 3.2
C[C@@H]1Cc2c(ccc3[nH]ncc23)[C@@H](c2cnc(NC3CN(CCCF)C3)cn2)N1CC(F)F [Example 50, 5-((6S,8R)-7-(2,2-difluoroethyl)-8-methyl-6,7,8,9-tetrahydro-3H-pyrazolo[4,3-f]isoquinolin-6-yl)-N-(1-(3-fluoropropyl)azetidin-3-yl)pyrazin-2-amine] | 2.1 | 748 (≈ 344 µg/mL) | 0.47 | 2.7 |  | 13000 | 
C[C@@H]1Cc2c(ccc3[nH]ncc23)[C@@H](c2cnc(NC3CN(CCCF)C3)cn2)N1CC1(F)CC1 [Example 55, 5-((6S,8R)-7-((1-fluorocyclopropyl)methyl)-8-methyl-6,7,8,9-tetrahydro-3H-pyrazolo[4,3-f]isoquinolin-6-yl)-N-(1-(3-fluoropropyl)azetidin-3-yl)pyrazin-2-amine] | 2.1 | 987 (≈ 461 µg/mL) | 1.1 | 8.2 |  | > 40000 | 
C[C@@H]1Cc2c(ccc3[nH]ncc23)[C@@H](c2ccc(N(C)C3CN(CCCF)C3)cn2)N1CC1(F)CC1 [Example 57, 6-((6S,8R)-7-((1-fluorocyclopropyl)methyl)-8-methyl-6,7,8,9-tetrahydro-3H-pyrazolo[4 3-f]isoquinolin-6-yl)-N-(1-(3-fluoropropyl)azetidin-3-yl)-N-methylpyridin-3-amine] | 2.9 | 615 (≈ 296 µg/mL) | 0.36 | 5 |  | 16000 | 
C[C@@H]1Cc2c(ccc3[nH]ncc23)[C@@H](c2ccc(OC3CN(CCCF)C3)cn2)N1CC(F)(F)CO [Example 58, 2,2-difluoro-3-((6S,8R)-6-(5-((1-(3-fluoropropyl)azetidin-3-yl)oxy)pyridin-2-yl)-8-methyl-3,6,8,9-tetrahydro-7H-pyrazolo[4,3-f]isoquinolin-7-yl)propan-1-ol] | 2.4 | 633 (≈ 310 µg/mL) | 0.56 | 2.1 |  | > 40000 | 
